According to patent publication US20240197652A1, “KETAMINE IN THE TREATMENT OF […]” (Awakn LS Europe Holdings Limited, priority 2021, published 2024):

Experiments:
Type in all cases: in vivo, human
[1] = Plasma ketamine, HNK and norketamine levels, gambling disorder subjects (Example 7); conditions: analyte = label; for peak plasma concentration: 100 mg racemic ketamine sublingual; for time of peak plasma concentration: post-administration of 100 mg racemic ketamine sublingual
Procedure: A study was completed on the use of ketamine to treat gambling disorder. Subjects were assessed for gambling disorder using the PGSI. Subjects were included if they received a PGSI score greater than 3. Five subjects in total were included (G1-G5). All five subjects were administered ketamine. Blood samples were collected from all five subjects. Blood samples were analysed to determine ketamine and ketamine metabolite levels, and each subject was assessed post-administration to determine the effectiveness of the treatment.
On Day 3, each subject returned on-site and was administered ketamine. 100 mg of racemic ketamine was administered in as sublingual lozenges.
(§1) Blood samples were collected every 10 minutes, from 0 minutes (the time of administration) to 90 minutes post-administration. Blood samples at each time point were analysed to determine plasma levels of (2S,6S;2R,6R)-Hydroxynorketamine (HNK).

[2] = Mean plasma ketamine, HNK and norketamine, all subjects of Examples 7-10; conditions: 100 mg racemic ketamine sublingual, analyte = label
Procedure: as §1
FIGS. 11-13 illustrate ketamine, HNK, and norketamine levels, respectively, for all subjects of EXAMPLES 7-10, while FIG. 14 illustrates the mean plasma levels of ketamine, HNK, and norketamine for all subjects of EXAMPLES 7-10. Results indicated a mean plasma concentration of ketamine of 104.87 ng/ml at 10 minutes, 230.11 ng/ml at 20 minutes, 267.08 ng/ml at 30 minutes, 271.62 ng/ml at 40 minutes, 288.48 ng/ml at 50 minutes, 272.42 ng/ml at 60 minutes, 263.40 ng/ml at 70 minutes, 227.50 ng/ml at 80 minutes, and 176.91 ng/ml at 90 minutes. Mean HNK was 0 at 10 minutes, 12.22 ng/ml at 20 minutes, 56.73 ng/ml at 30 minutes, 79.10 ng/ml at 40 minutes, 126.20 ng/ml at 50 minutes, 198.87 ng/ml at 60 minutes, 221.08 ng/ml at 70 minutes, 209.14 ng/ml at 80 minutes, and 217.32 ng/ml at 90 minutes. Mean norketamine was 1.92 at 10 minutes, 57.39 ng/ml at 20 minutes, 141.78 ng/ml at 30 minutes, 286.02 ng/ml at 40 minutes, 505.15 ng/ml at 50 minutes, 646.73 ng/ml at 60 minutes, 750.57 ng/ml at 70 minutes, 723.79 ng/ml at 80 minutes, and 653.94 ng/ml at 90 minutes.

[3] = Plasma ketamine, HNK and norketamine levels, binge eating disorder subjects (Example 8); conditions: analyte = label; for peak plasma concentration: 100 mg racemic ketamine sublingual; for time of peak plasma concentration: post-administration of 100 mg racemic ketamine sublingual
Procedure: A study was completed on the use of ketamine to treat binge eating disorder. Subjects were assessed for binge eating disorder using the Binge Eating Scale (BES), and included if they received a BES score greater than 15. Three subjects in total were included (BE1-BE3, and interchangeably on FIGS. 5 and 6 as BED1-BED3, these being the same subjects). All three were administered sublingual lozenges comprising 100 mg of racemic ketamine.
Blood samples were collected from all three subjects. Blood samples were analysed to determine ketamine and ketamine metabolite levels, as well as the hormones leptin and ghrelin. Self-report measures were conducted.
The treatment protocol commenced in substantially the same way as disclosed in the ketamine in subjects with gambling disorder study completed in EXAMPLE 7, with the exceptions outlined as follows: No behavioural tasks were completed. Blood samples collected every 10 minutes from the time of administration to 90 minutes post-administration were additionally analysed for leptin and ghrelin. Self-report measures included the Binge Eating Scale, the Adult Attachment Interview (AAI), a 20 question interview about the subject's recollections of their childhood (Sykes and Turner, 2015); the Childhood Trauma Questionnaire; the Morningness-Eveningness Questionnaire (MEQ), a 19-item questionnaire designed to assess when a respondent prefers to wake up or start sleep (American Thoracic Society, 2022); the DSM-5 Binge Eating Disorder diagnostic criteria; and the SPSRQ.

[4] = Plasma ketamine, HNK and norketamine levels, gaming disorder subjects (Example 9); conditions: analyte = label; for peak plasma concentration: 100 mg racemic ketamine sublingual; for time of peak plasma concentration: post-administration of 100 mg racemic ketamine sublingual
Procedure: A study was completed on ketamine to treat gaming disorder. Subjects were assessed for gaming disorder using the Internet Gaming Disorder Scale (IGDS) and were included if they received an IGDS score greater than 3. Three subjects in total were included (IG1-IG3). All three were administered sublingual lozenges comprising 100 mg of racemic ketamine.
Blood samples were collected from all three subjects. Blood samples were analysed to determine ketamine and ketamine metabolite levels. Assessments were conducted as below.
The treatment protocol commenced in the same manner as disclosed in the ketamine in subjects with gambling disorder study completed in EXAMPLE 7, with the exceptions as follow: No behavioural tasks were completed. Self-report measures completed during EXAMPLE 9 included Social Phobia Inventory (SPIN), the Craving for Gaming Questionnaire (CGQ), and Generalised Anxiety Disorder-7 (GAD-7) the Sensitivity to Reward and Punishment Scale, and the Childhood Trauma Questionnaire, the Morningness-Eveningness Questionnaire (MEQ).

[5] = subject BE1 (no data at 30 minutes)

Row | Compound | peak plasma concentration ([1]; subject G1) | time of peak plasma concentration ([1]; subject G1) [min] | peak plasma concentration ([1]; subject G2) | time of peak plasma concentration ([1]; subject G2) [min] | peak plasma concentration ([1]; subject G3) | time of peak plasma concentration ([1]; subject G3) [min] | peak plasma concentration ([1]; subject G4) | time of peak plasma concentration ([1]; subject G4) [min] | peak plasma concentration ([1]; subject G5) | time of peak plasma concentration ([1]; subject G5) | peak plasma concentration [3, 5] | time of peak plasma concentration [3, 5] [min] | peak plasma concentration ([3]; subject BE2) | time of peak plasma concentration ([3]; subject BE2) [min] | peak plasma concentration ([3]; subject BE3) | time of peak plasma concentration ([3]; subject BE3) [min] | peak plasma concentration ([4]; subject IG1) | time of peak plasma concentration ([4]; subject IG1) [min] | peak plasma concentration ([4]; subject IG2) | time of peak plasma concentration ([4]; subject IG2) [min] | other results
1 | NC1(c2ccccc2Cl)CCCCC1=O (racemic) [Norketamine, (R,S)-norketamine] | about 592 ng/ml | 80 | about 1,450 ng/ml | 70 | about 574 ng/ml | 80 | about 495 ng/ml | 90 | about 1,079 ng/ml | about 90 minutes | about 81 ng/ml | 90 | about 685 ng/ml | 40 | about 975 ng/mL | 60 | about 627 ng/ml | 70 | about 1,040 ng/ml | 50 | concentration at 10 min ([2]; human, plasma, other: sublingual, 10 minutes post-administration): 1.92 ng/mL; concentration at 20 min ([2]; human, plasma, other: sublingual, 20 minutes post-administration): 57.4 ng/mL; concentration at 30 min ([2]; human, plasma, other: sublingual, 30 minutes post-administration): 142 ng/mL; concentration at 40 min ([2]; human, plasma, other: sublingual, 40 minutes post-administration): 286 ng/mL; concentration at 50 min ([2]; human, plasma, other: sublingual, 50 minutes post-administration): 505 ng/mL; concentration at 60 min ([2]; human, plasma, other: sublingual, 60 minutes post-administration): 647 ng/mL; concentration at 70 min ([2]; human, plasma, other: sublingual, 70 minutes post-administration): 751 ng/mL; concentration at 80 min ([2]; human, plasma, other: sublingual, 80 minutes post-administration): 724 ng/mL; concentration at 90 min ([2]; human, plasma, other: sublingual, 90 minutes post-administration): 654 ng/mL; peak plasma concentration ([4]; subject IG3): about 1,116 ng/mL; time of peak plasma concentration ([4]; subject IG3): 60 min
2 | N[C@@]1(c2ccccc2Cl)CCC[C@@H](O)C1=O [HNK, (2S,6S;2R,6R)-hydroxynorketamine] | about 300 ng/ml | 80 | about 319 ng/ml | 70 | about 175 ng/ml | 90 | about 134 ng/ml | 90 | about 615 ng/ml | about 60 minutes | about 53 ng/ml | 90 | about 108 ng/ml | 80 | about 244 ng/mL | 90 | about 287 ng/ml | 90 | about 279 ng/ml | 90 | mean plasma concentration ([2]; 10 minutes post-administration): 0 ng/mL; mean plasma concentration ([2]; 20 minutes post-administration): 12.22 ng/mL; mean plasma concentration ([2]; 30 minutes post-administration): 56.73 ng/mL; mean plasma concentration ([2]; 40 minutes post-administration): 79.10 ng/mL; mean plasma concentration ([2]; 50 minutes post-administration): 126.20 ng/mL; mean plasma concentration ([2]; 60 minutes post-administration): 198.87 ng/mL; mean plasma concentration ([2]; 70 minutes post-administration): 221.08 ng/mL; mean plasma concentration ([2]; 80 minutes post-administration): 209.14 ng/mL; mean plasma concentration ([2]; 90 minutes post-administration): 217.32 ng/mL; peak plasma concentration ([4]; subject IG3): about 407 ng/mL; time of peak plasma concentration ([4]; subject IG3): 60 min
